{"source": "paper PMC3944389", "about": "“Differential Neuroprotective Effects of 5′-Deoxy-5′-Methylthioadenosine” (PLoS ONE, 2014)", "key": {"[1]": {"system": "co-culture of bovine-brain endothelial cells (BBECs) and newborn rat astrocytes", "test": "In vitro cell model of transport across the BBB", "format": "in vitro ADME", "experimental": "A in vitro cell model of BBB permeability was established using a co-culture of bovine-brain endothelial cells (BBECs) and newborn rat astrocytes. The cells were first cultured in 24-well (Transwell^R) permeable supports with a surface area of 0.33 cm^2 and a pore size of 0.4 µm (Corning), the upper surface of which was coated with collagen type IV and fibronectin. The inserts were then placed upside down in a large petri dish, and 40 µL of a suspension (containing approximately 45,000 astrocytes) was placed on the bottom of each filter. The petri dish was incubated at 37°C for 1 h, and 40 µL of fresh DMEM+S was added to the bottom of each filter every 15 min. The inserts were then transferred back to the plate and incubated at 37°C in 5% CO2 for 3 d. Then, 2 h before seeding the BBECs, the medium was replaced by DMEM+S supplemented with 125 µg/mL heparin and 2 h later, the cells were seeded onto the inserts (45,000 cells per filter). The plate was incubated at 37°C in 5% CO2 for 3 more days, after which the medium was replaced by DMEM+S supplemented with cyclic adenosine monophosphate (cAMP) and RO-20-1724, and kept at 37°C in 5% CO2. On day 8 of the co-culture, the transendothelial electrical resistance (TEER) was measured to determine whether the system was ready for transport studies. To validate the maturity of the model, permeability assays with lucifer yellow (LY) were performed in parallel as a marker of the integrity of the in vitro barrier. During the permeability assay, the samples were co-incubated with LY (20 µM) to assess the integrity of the cellular monolayer during the assay."}, "[2]": {"system": "rat mixed astrocyte-neuron cultures", "test": "NMDA-induced caspase 3 activation in mixed astrocyte-neuron cultures", "format": "cell-based", "details": "pre- or co-treatment; MTA 250 µM, MK-801 10 µM; 300 µM NMDA", "experimental": "(§1) Finally, to prepare neuron-astrocyte co-cultures, neurons were resuspended in B27 Neurobasal medium plus 10% of foetal bovine serum (FBS) and then seeded onto a monolayer of astrocytes in 24-well plates at a density of 1–2×10^5 cells per well, the astrocytes having been prepared beforehand, as described elsewhere. One day later, the medium was replaced with B27-Neurobasal plus 10% FBS medium, and the cells were maintained at 37°C in 5% CO2. The cultures were used 8–9 days after plating. Neurons and astrocytes were identified with antibodies against microtubule-associated protein-2 and GFAP, respectively.\nTo assay N-methyl–D-aspartate (NMDA) excitotoxicity, primary cultures were seeded in 24-well plates at 15×10^4 cells/well, cultured for 7 days in vitro, and treated for different times with the vehicle alone (dimethyl sulfoxide (DMSO) 1%), NMDA (300 µM), NMDA (300 µM) + MTA (250 µM) or NMDA (300 µM) + MK-801, a NMDA receptor antagonist (10 µM). […] Caspase 3 activity was measured in these lysates one hour after the NMDA addition.\nCortical neurons, or mixed cortical neurons and glia, were seeded in poly-L-lysine-coated 6-well culture plates during 7 days in vitro before start the set of experiments. […] The extracts were then centrifuged at 5,000×g for 10 min at 4°C and the protein content was determined by the BCA protein assay. […]"}, "[3]": {"system": "rat mixed cultures of neurons and astrocytes", "test": "Oxygen-glucose deprivation (OGD) with iodoacetate, LDH release", "format": "cell-based", "experimental": "as §1\nIschemic damage was induced by incubating cell cultures for 1 h in a hyperbaric chamber in a nitrogen-saturated buffer containing: 130 mM NaCl, 5.4 mM KCl, 0.1323 mM CaCl2, 0.26 mM NaHCO3, 0.8 mM MgCl2, 1.18 mM NaH2PO4, 10 mM sucrose (OGD plus sucrose) and iodoacetate (IAA, 20 or 50 µM). IAA is a glycolytic blocker typically used in OGD experiments to simulate ischemic conditions. After the insult, the cells were incubated under normoxic conditions for an additional 24 h in the presence of glucose but in the absence of IAA. Distinct reagents were added during ischemia to evaluate their neuroprotective activity by assessing cell viability and cell death in the cultures.\nThe cell status was assessed by measuring the release of lactate dehydrogenase (LDH) from dead cells. LDH was measured spectrophotometrically at 490 nm on a 96-well plate reader using the Cytotox 96 Kit according to the manufacturer's instructions (Promega). The LDH release was defined by the ratio of LDH released to the total LDH present in the cell at the beginning of the treatment."}}}
{"substance": "5′-deoxy-5′-methylthioadenosine [MTA]", "values": [{"measurement": "Pe x 10^−6 (cm/s)", "setting": "[1]", "result": "4.5 x 10^−6 cm/s"}, {"measurement": "effective permeability coefficient (Pe)", "setting": "[1]", "result": 4.5, "unit": "×10⁻⁶ cm/s"}, {"measurement": "caspase 3 activation induced by NMDA", "setting": "[2]", "result": "reverted to basal levels"}, {"measurement": "protection against OGD (cell death, LDH release)", "setting": "[3]; IAA 20 and 50 µM, MTA 10 µM or 100 µM, APV 100 µM", "result": "significant"}, {"measurement": "protection against OGD (cell death, LDH release)", "setting": "[3]; supramaximal dose of MTA, 1 mM", "result": "neither protective nor did it lead to greater damage than OGD itself"}]}
